The values that follow are results of earlier work, collected in patent US8632826B2, “Cosmetic wrinkle treatment method based on a zanthoxylum bungeanum extract” (Indena S.p.A., priority 2009, dated 2014).

This data set has as its system thrombosis.

The structures appear in SMILES notation.

Regarding `COc1ccc2c(c[n+](C)c3c4cc5c(cc4ccc23)OCO5)c1OC` [chelcrythrine], the “activity in the prevention of thrombosis” value is “active in the prevention of thrombosis”.
